Measurements published in US20240238368A1, “PEPTIDE FOR PREVENTING AND TREATING FIBROSIS” (NIBEC CO., LTD., priority 2021, published 2024).

How the values were obtained:
[1] = system: bleomycin-induced lung disease; details: bleomycin mice; for fibrous deposition in the lungs (Sirius Red and hematoxylin/phloxine staining) / area of fibrosis (Sirius Red): day 22; for fibrous deposition in the lungs (Sirius Red and hematoxylin/phloxine staining): peptides 30 mg/kg subcutaneously three times a week compared to NT and nintedanib groups, FIG. 8c; for area of fibrosis (Sirius Red): compared to NT group and nintedanib-treated group, P<0.05, FIG. 8d
Experimental: C57BL/6J mice (male, 7 weeks old) were purchased from Charles River. Mice were anesthetized by intraperitoneal administration of a mixture of Imalgene (ketamine, 100 mg/kg)/Rompun (xylazine, 20 mg/kg), and a total of 50 μl of bleomycin sulfate (1.45 mg/kg, MBcell, CA, USA) was injected intratracheally once, and saline was injected intratracheally in the normal group (day 0). On day 7, mice were divided into groups, each consisting of eight. PBS (NT), SEQ ID NO: 1 (30 mg/kg), and SEQ ID NO: 2 (30 mg/kg) were administered subcutaneously three times a week, and nintedanib (Fluorochem Ref=050741, 100 mg/kg) was administered orally daily. Each of the peptides of SEQ ID NO: 1 and SEQ ID NO: 2 was administered after dissolution in water for injection, and nintedanib was administered after mixing with water containing 0.5% hydroxyethylcellulose (Sigma; lot BCBV5033) and 0.01% Tween 80 (Sigma; lot BCBR6211V). While administering the drug for 21 days, body weight was measured every 2 days, and whether there were other clinical symptoms were checked.
After mice were sacrificed with isoflurane on day 22, lung tissue was excised therefrom and histological analysis was performed. Paraffin was introduced into the lungs, 5 μm paraffin sections were manufactured, Sirius Red staining and hematoxylin/phloxine staining were performed to evaluate the extent of pulmonary fibrosis and inflammation, and the extent of inflammation and fibrosis was observed through microscopy.
In order to quantify the fibrotic change, the area of the red (fibrotic portion) was quantified in the sample stained with Sirius Red.

[2] = system: COL1A2 and COL3A1 gene expression; assay: Inhibition of collagen gene expression in cells (real-time PCR); format: cell-based, human; details: IPF patient lung fibroblasts, 10 ng/ml TGF-β1 24 hours, then peptide 200 μM 24 hours; *p<0.05; FIG. 6
Experimental: The cells were seeded in a 24-well plate and cultured in starvation medium (Dulbecco's modified Eagle medium/F12 without FBS supplemented with 0.1 mM 2-phospho-L-ascorbic acid) for 24 hours. Recombinant Human TGF-β1 Protein (R&D Systems, #240-B-002) was diluted at 20 μg/ml in sterile 4 mM HCl containing 1 mg/ml bovine serum albumin. The cells were cultured for 24 hours in full growth media containing 10 ng/ml TGF-β1. The cells were treated with SEQ ID NO: 1 (200 μM), SEQ ID NO: 2 (200 μM), or nintedanib (10 μM) in fresh medium and cultured for 24 hours. The peptides were dissolved in purified water, nintedanib was dissolved in dimethyl sulfoxide, and the concentration of dimethyl sulfoxide in medium was set to 1%. The medium was removed, followed by washing with DPBS (Welgene, LB001-02) and cell lysis using 1 ml of a trizol reagent (Ambion, 15596). 250 μl of chloroform was added thereto, the tube was stirred, and centrifugation was performed at 10,000 rpm for 15 minutes. After removing the aqueous layer using a pipette, 550 μl of isopropanol (Sigma, 19516) was added and shaken gently. After centrifugation at 15,000 rpm for 25 minutes, isopropanol was removed, and 1 ml of 75% ethanol was added thereto. After removal of ethanol and drying in air, the pellets were dissolved in DEPC water (Invitrogen, AM9915G). The concentration of RNA was measured using a Nano Drop (Thermo Scientific, NanoDrop One, AZY1913798).
(§1) CDNA was synthesized from the extracted RNA using a Maxima First strand CDNA synthesis kit (Thermo Fisher, K1641) according to the manufacturer's protocol. In addition, real-time PCR was performed using QuantStudio 3 (Applied Biosystems, A28132) according to the manufacturer's protocol. PCR amplification was conducted by repeating 50 cycles at 95° C. for 30 seconds, 60° C. for 30 seconds, and 72° C. for 30 seconds.

[3] = target: T1, pSmad3 (Homo sapiens, UniProt P84022); assay: Inhibition of phosphorylation of Smad3 (Western blotting); format: cell-based; details: LX-2 cells, 10 ng/ml TGF-β1 24 hours, then peptide 10, 100 or 200 μM 24 hours; effect from 10 μM; FIG. 5
T1 construct: LX-2 (Human hepatic stellate cell line, Millipore #SCC064); host or cells: LX-2 human hepatic stellate cell line
T1 sequence (P84022 whole entry): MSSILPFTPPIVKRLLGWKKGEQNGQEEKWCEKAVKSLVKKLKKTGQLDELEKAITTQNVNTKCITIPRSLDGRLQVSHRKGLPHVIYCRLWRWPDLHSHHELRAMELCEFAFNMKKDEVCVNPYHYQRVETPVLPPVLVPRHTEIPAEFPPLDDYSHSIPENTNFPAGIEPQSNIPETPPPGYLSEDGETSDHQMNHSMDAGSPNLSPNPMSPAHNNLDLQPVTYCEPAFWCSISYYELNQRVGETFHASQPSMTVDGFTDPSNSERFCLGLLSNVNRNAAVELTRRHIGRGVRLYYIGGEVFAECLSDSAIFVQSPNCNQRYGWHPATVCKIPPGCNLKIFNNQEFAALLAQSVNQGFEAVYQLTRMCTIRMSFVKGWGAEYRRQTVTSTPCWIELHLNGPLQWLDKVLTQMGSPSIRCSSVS
Experimental: (§2) 3×10^6 LX-2 cells were treated with 10 ng/ml TGF-β1 and cultured for 24 hours. The cells were treated with 10, 100, or 200 μM of the peptide of SEQ ID NO: 2 or 10 µM SIS3 (Smad3 inhibitor, Sigma-Aldrich, catalog #566405) in fresh medium and cultured for 24 hours.
(§3) Proteins were lysed using RIPA lysis buffer (25 mM Tris HCl pH 7.6, 150 mM NaCl, 1% NP-40, 1% sodium deoxycholate, 0.1% SDS) containing a protease inhibitor and a phosphatase inhibitor. Proteins were quantified by BCA protein assay, and the expression levels of pSmad2, Smad2, pSmad3, Smad3, TGFβ receptor 1, and GAPDH proteins were determined by Western blotting. For Western blotting, the sample was loaded in the same amount along with a size marker on an 8% SDS PAGE gel, electrophoresed for about 2 hours, and then transferred to a nitrocellulose membrane. The transferred membrane was blocked with 5% skim milk for 1 hour, and allowed to react with primary antibodies at a ratio of 1:1000 overnight. The primary antibodies used were pSmad2 (Cell Signaling, #3108), Smad2 (Cell Signaling, #5339), pSmad3 (Abcam, ab52903), Smad3 (Cell Signaling, #9513), TGFβ receptor1 (Abcam, ab31013), and GAPDH (Cell Signaling, #2118S). […]

[4] = system: methionine-choline-deficient (MCD) diet-induced hepatitis and hepatic fibrosis; assay: Methionine-choline-deficient diet mouse model (hepatitis and hepatic fibrosis); format: in vivo, C57BL/6J mice; details: MCD diet mice, peptide 20 mg/kg, 12 administrations at 3-day intervals, compared to NT group or GLP-1 agonist (liraglutide 0.2 mg/kg) group; for NAFLD activity score: FIGS. 9b, 9c; for area of fibrosis (Masson's trichrome-positive area): FIGS. 9d, 9e
Experimental: Male 6-week-old C57BL/6J mice were used, and divided into a normal diet group, a group not treated after feeding MCD diet, groups injected with the peptide of SEQ ID NO: 1 (20 mg/kg) and the peptide of SEQ ID NO: 2 (20 mg/kg), and a positive control group subcutaneously injected with liraglutide (0.2 mg/kg), which is a type of glucagon-like peptide 1 receptor agonist serving as a hepatitis therapeutic agent. After autonomous feeding of MCD diet for 10 weeks, 8 mice were assigned to each group and a therapeutic agent was administered thereto. Peptide and liraglutide were administered once a day, a total of 12 times at 3-day intervals (FIG. 9a). For all animals, body weight was measured immediately before initiation of administration and twice a week throughout the entire test. After the end of the last administration, the animals was anesthetized by intraperitoneal injection of 300 μl of Avertin, blood was collected from the abdominal vena cava by laparotomy, the liver and spleen were removed therefrom, and the weight of the removed organs was measured. Tissues were fixed in a neutral buffered formalin solution for all animals subjected to necropsy, and paraffin blocks were manufactured and sectioned through tissue processing. The tissue sections thus obtained were subjected to H&E staining. The H&E stained specimens were scored for steatosis, ballooning degeneration, and lobular inflammation (Table 3), and the extent of hepatic inflammation (NAFLD activity score) was measured. The tissue sections manufactured in the same manner as in Example 8-2 were stained with Masson's trichrome, and 100× magnification images were obtained with an optical microscope (BX51, Olympus, GER) at 5 randomly designated different sites among all Masson's trichrome-stained slides (300MI CMOS camera, […]). The blue-stained […] was measured (Image-Pro Plus, Media Cybernetics Inc., UK) and analyzed as a percentage (Masson's trichrome-positive area […]).

[5] = system: TGFβ receptor 1; assay: TGFβ receptor expression level (Western blotting); format: cell-based, human; details: LX-2 cells, 10 ng/ml TGF-β1 24 hours, then peptide 10, 100 or 200 μM 24 hours; FIG. 5
Experimental: as §2, §3

[6] = target: T2, pSmad2 (Homo sapiens, UniProt Q15796); assay: Inhibition of phosphorylation of Smad2 (Western blotting); format: cell-based; details: LX-2 cells, 10 ng/ml TGF-β1 24 hours, then peptide 10, 100 or 200 μM 24 hours; FIG. 5
T2 construct: LX-2 (Human hepatic stellate cell line, Millipore #SCC064); host or cells: LX-2 human hepatic stellate cell line
T2 sequence (Q15796 whole entry): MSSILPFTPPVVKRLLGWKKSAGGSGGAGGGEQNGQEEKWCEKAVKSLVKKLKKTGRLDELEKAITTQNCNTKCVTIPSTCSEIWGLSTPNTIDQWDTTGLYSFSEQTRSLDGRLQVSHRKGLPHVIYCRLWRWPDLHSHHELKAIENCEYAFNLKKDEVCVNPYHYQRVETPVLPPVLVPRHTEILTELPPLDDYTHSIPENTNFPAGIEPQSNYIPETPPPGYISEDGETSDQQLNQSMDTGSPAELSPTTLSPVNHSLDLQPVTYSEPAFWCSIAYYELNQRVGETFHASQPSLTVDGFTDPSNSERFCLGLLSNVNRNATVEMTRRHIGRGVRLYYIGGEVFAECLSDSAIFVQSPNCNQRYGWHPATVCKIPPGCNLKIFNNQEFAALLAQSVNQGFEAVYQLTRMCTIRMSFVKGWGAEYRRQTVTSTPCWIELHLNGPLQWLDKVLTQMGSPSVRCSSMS
Experimental: as §2, §3

[7] = system: MET markers (E-cadherin, EpCAM) and EMT markers (N-cadherin, Twist1, Snail1); assay: Reprogramming effects in cells: MET and EMT marker gene expression (real-time PCR); format: cell-based, human; details: LX-2 cells, 10 ng/ml TGF-beta1 and 100 μM peptide, 24 hours; FIG. 7
Experimental: The medium was removed, followed by washing with DPBS (Welgene, LB001-02) and cell lysis using 1 ml of a trizol reagent (Ambion, 15596). 250 μl of chloroform was added thereto, the tube was stirred, and centrifugation was performed at 10,000 rpm for 15 minutes. After removing the aqueous layer using a pipette, 550 μl of isopropanol (Sigma, 19516) was added and shaken gently. After centrifugation at 15,000 rpm for 25 minutes, isopropanol was removed, and 1 ml of 75% ethanol was added thereto. After removal of ethanol and drying in air, the pellets were dissolved in DEPC water (Invitrogen, AM9915G). The concentration of RNA was measured using a Nano Drop (Thermo Scientific, NanoDrop One, AZY1913798).
as §1, with “by repeating 40 cycles at” for “by repeating 50 cycles at”, “C. for 15 seconds, 60°” for “C. for 30 seconds, 60°”, “C. for 50 seconds, and” for “C. for 30 seconds, and”, “C. for 15 seconds.” for “C. for 30 seconds.”

[8] = nintedanib 100 mg/kg orally daily
[9] = peptides 30 mg/kg subcutaneously three times a week

| Compound | change in body weight after treatment ([1]; day 0 to day 22, treatment from day 7, peptides 30 mg/kg subcutaneously three times a week, nintedanib 100 mg/kg orally daily, FIG. 8b) | fibrous deposition in the lungs (Sirius Red and hematoxylin/phloxine staining) [1, 8] | COL1A2 gene expression [2] | COL3A1 gene expression [2] | area of fibrosis (Sirius Red) [1, 9] | expression of pSmad3 [3] | NAFLD activity score [4] | area of fibrosis (Masson's trichrome-positive area) [4] | expression level of the TGFβ receptor [5] | expression of pSmad2 [6] | gene expression of E-cadherin (MET marker) [7] | gene expression of EpCAM (MET marker) [7] | gene expression of N-cadherin (EMT marker) [7] | gene expression of Snail1 (EMT marker) [7] | gene expression of Twist1 (EMT marker) [7] |
| --- | --- | --- | --- | --- | --- | --- | --- | --- | --- | --- | --- | --- | --- | --- | --- |
| COC(=O)c1ccc2c(c1)NC(=O)/C2=C(\Nc1ccc(N(C)C(=O)CN2CCN(C)CC2)cc1)c1ccccc1 [nintedanib, reference compound] | increased | some therapeutic effect, but a lot of deposited fibrous tissue was still observed | – | – | – | – | – | – | – | – | – | – | – | – | – |
| GKCSTRGRKSSRRKK [SEQ ID NO: 2] | – | significantly reduce fibrosis | significantly reduced | significantly reduced | significant reduction | completely disappeared | significantly reduced | significantly reduce | no change | decreased with an increase in the concentration | increased | increased | decreased | decreased | decreased |
| YGLRSKSKKFRRPDIQYPDAT [SEQ ID NO: 1] | – | significantly reduce fibrosis | significantly reduced | significantly reduced | significant reduction | – | significantly reduced | significantly reduce | – | – | – | – | – | – | – |
